Assays:
male TH mice [1] = assay: Micro-CT bone mineral density, bone mineral content and skull thickness in drug-treated male TH mice; assay type: in vivo, mouse
Experimental: Control mice (C57BL/6) and TH mice were freely fed, and their bone mineral densities were measured every week from 4 week age to 20 week age after delectation. The mice were anesthetized with Avertin (2,2,2-tribromoethanol) to keep them alive while measuring their bone mineral densities. […] Thereafter, the resulting images were reformed using Microview (GE Healthcare, USA) to obtain the final bone mineral density (BMD) and the final bone mineral content (BMC) (see FIG. 2).
Control mice (C57BL/6) and TH mice were fed freely. […] Thereafter, the bone thicknesses and the bone mineral densities of the extracted skulls were measured as described in Example 2, using a tomographic apparatus (micro-CT) for animals.
8-week-old male TH mice were orally administered with parathyroid hormone (hPTH(1-34), Sigma, USA), which is started to be used as an osteoporosis medicine increasing the bone mineral content, with a concentration of 50 μg/kg, once a day for 4 weeks.

male TH mice [2] = details: oral 5 mg/kg once a day for 4 weeks, femur of 8-week-old mouse, micro-CT (FIG. 19)
Experimental: Thereafter, the bone mineral density and the bone mineral content of the femur and the thickness and the bone mineral density of the skull were measured as described in Examples 2 and 3. […] The TH mice and B6 mice were sacrificed with carbon dioxide. The femurs thereof were extracted and scanned 400 times with a thickness of […] using eXplore Locus micro-CT (GE Healthcare, USA) which is devised as a tomographic apparatus for small animals. The scanned images were accurately reformed using Microview (GE Healthcare, USA) to obtain final histomorphological images of the femurs.

IL-6 = details: male TH mice, oral 5 mg/kg once a day for 4 weeks; ELISA (FIG. 20)
Experimental: (§1) Thereafter, the bone mineral density and the bone mineral content of the femur and the thickness and the bone mineral density of the skull were measured as described in Examples 2 and 3.
Meanwhile, after separating the blood serum, IL-6 level was measured using ELISA Kit (ALPCO diagnostics, USA).

OPG = details: cells separated from bone marrow of treated TH mice and cultured, RT-PCR; vs vehicle (FIG. 21)
Experimental: (§2) After separating mRNA from the cell of FIG. 4, the expression levels of the genes related to the differentiation of osteoblast and osteoclast and cytokines were analyzed. The total RNA was obtained from the Extraction Kit (Intron, Seongnam, Korea) according to the manufacturer's protocol. The separated RNA was weighed by measuring the absorbance. The reverse transcription PCR (RT-PCR) was performed using primers listed in Table 1 under the following conditions to examine the expression level of each of the genes.
(§3) Reverse Transcription System (Promega, USA) was added with total RNA 1 μg, 10 mM dNTP 2 μl, 100 pmole Oligo dT 1 μl, 10×buffer 2 μl, 25 mM MgCl2 4 μl, RNase inhibitor 0.2 μl, AMV RTase 0.2 μl, and DEPC-treated water, and cultured at 42° C. for 60 minutes and at 72° C. for 10 minutes to prepare cDNA. Then, the reverse transcripted cDNA sample was amplified using primer pairs specific to respective target genes. The PCR was repeated 25-30 times after denaturation at 95° C. for 5 minutes. In specific, the PCR was performed under the condition of denaturation at 95° C. for 30 seconds, primer annealing at 55° C. (NPY1receptor), 56° C.
as §1

RANKL = details: cells separated from bone marrow of treated TH mice and cultured, RT-PCR; vs vehicle (FIG. 21)
Experimental: as §2, §3, §1

Compound | bone mineral densities (male TH mice [1]; 8-week-old male TH mice, 50 μg/kg once a day for 4 weeks, orally administered (so in the source), femur, vs 12-week-old TH mice treated with vehicle only (FIG. 22)) | bone mineral contents (male TH mice [1]; 8-week-old male TH mice, 50 μg/kg once a day for 4 weeks, orally administered (so in the source), femur, vs 12-week-old TH mice treated with vehicle only (FIG. 23)) | histomorphological images of the femurs (recovering the bone loss) (male TH mice [2]) | IL-6 level in blood serum (IL-6) | bone mineral contents in the femurs (male TH mice [1]; 4-week-old male TH mice, oral 5 mg/kg once a day for 4 weeks, vs 8-week-old TH mice treated with vehicle only (FIG. 16)) | thicknesses of the skulls (male TH mice [1]; 4-week-old male TH mice, oral 5 mg/kg once a day for 4 weeks, vs TH mice vehicle (FIG. 17)) | OPG gene expression (OPG) | RANKL gene expression (RANKL)
parathyroid hormone (hPTH(1-34) (SVSEIQLMHNLGKHLNSMERVEWLRKKLQDVHNF; Parathyroid hormone; UniProt P01270 32-65, looked up, fragment) [parathyroid hormone hPTH(1-34), Sigma; osteoporosis medicine increasing the bone mineral content] | significantly recovered | significantly recovered |  |  |  |  |  | 
NCCCC(O)(P(=O)(O)O)P(=O)(O)O [alendronate] |  |  | filled with trabeculars | low IL-6 level | significantly recovered | significantly recovered | increased | decreased
